Measured values reported in patent US10302653B2, “Distinguishing antagonistic and agonistic anti B7-H1 antibodies” (Mayo Foundation for Medical Education and Research, priority 2014, dated 2019).

Key:
DNA-PKcs = molecular target: T1, DNA-PKcs (Mus musculus, UniProt P97313); assay: p38 MAPK activation in pre-activated WT and B7-H1 KO T cells cultured with DNA-PKcs inhibitor; assay type: cell-based
T1 construct: endogenous in cells
Procedure: NU7026 (2-(morpholin-4-yl)-benzo[h]chomen-4-one) is a DNA-PKcs inhibitor. […] NU7026 is added into cultures with pre-activated WT and B7-H1 KO T cells and after 24-72 hours of incubation, the activation of p38 is measured in the cells. As a consequence of p38 MAPK activation regulated by NU7026, the level of Bcl-xL also is measured in the T cells after treatment with NU7026. If p38 activation is regulated by DNA-PKcs, changes in p38 activation in the presence of NU7026 would be observed in WT T cells. If B7-H1 requires DNA-PKcs to regulate activation of p38 MAPK, NU7026 would induce significant changes in p38 MAPK activation in WT T cells, but not in B7-H1 KO T cells. […] Bcl-xL levels would change accordingly with the changes in p38 MAPK activation. In addition to inhibition of DNA-PKcs activity by NU7026, the impact of total DNA-PKcs protein levels on p38 MAPK activation is evaluated. siRNA-mediated knockdown of DNA-PKcs is known to result in reduced ERK activation in mouse macrophages (Yotsumoto et al., supra). Using a similar approach, experiments are conducted to test whether down-regulation of DNA-PKcs in T cells affects p38 MAPK activation in WT and B7-H1 KO T cells. Preliminary data predicts a potential link between DNA-PK and activation of p38 MAPK. […]

DNA-PK = DNA-PK (Homo sapiens, UniProt P78527); conditions: 10 μM; cited from earlier work

T1 sequence (P97313 whole entry): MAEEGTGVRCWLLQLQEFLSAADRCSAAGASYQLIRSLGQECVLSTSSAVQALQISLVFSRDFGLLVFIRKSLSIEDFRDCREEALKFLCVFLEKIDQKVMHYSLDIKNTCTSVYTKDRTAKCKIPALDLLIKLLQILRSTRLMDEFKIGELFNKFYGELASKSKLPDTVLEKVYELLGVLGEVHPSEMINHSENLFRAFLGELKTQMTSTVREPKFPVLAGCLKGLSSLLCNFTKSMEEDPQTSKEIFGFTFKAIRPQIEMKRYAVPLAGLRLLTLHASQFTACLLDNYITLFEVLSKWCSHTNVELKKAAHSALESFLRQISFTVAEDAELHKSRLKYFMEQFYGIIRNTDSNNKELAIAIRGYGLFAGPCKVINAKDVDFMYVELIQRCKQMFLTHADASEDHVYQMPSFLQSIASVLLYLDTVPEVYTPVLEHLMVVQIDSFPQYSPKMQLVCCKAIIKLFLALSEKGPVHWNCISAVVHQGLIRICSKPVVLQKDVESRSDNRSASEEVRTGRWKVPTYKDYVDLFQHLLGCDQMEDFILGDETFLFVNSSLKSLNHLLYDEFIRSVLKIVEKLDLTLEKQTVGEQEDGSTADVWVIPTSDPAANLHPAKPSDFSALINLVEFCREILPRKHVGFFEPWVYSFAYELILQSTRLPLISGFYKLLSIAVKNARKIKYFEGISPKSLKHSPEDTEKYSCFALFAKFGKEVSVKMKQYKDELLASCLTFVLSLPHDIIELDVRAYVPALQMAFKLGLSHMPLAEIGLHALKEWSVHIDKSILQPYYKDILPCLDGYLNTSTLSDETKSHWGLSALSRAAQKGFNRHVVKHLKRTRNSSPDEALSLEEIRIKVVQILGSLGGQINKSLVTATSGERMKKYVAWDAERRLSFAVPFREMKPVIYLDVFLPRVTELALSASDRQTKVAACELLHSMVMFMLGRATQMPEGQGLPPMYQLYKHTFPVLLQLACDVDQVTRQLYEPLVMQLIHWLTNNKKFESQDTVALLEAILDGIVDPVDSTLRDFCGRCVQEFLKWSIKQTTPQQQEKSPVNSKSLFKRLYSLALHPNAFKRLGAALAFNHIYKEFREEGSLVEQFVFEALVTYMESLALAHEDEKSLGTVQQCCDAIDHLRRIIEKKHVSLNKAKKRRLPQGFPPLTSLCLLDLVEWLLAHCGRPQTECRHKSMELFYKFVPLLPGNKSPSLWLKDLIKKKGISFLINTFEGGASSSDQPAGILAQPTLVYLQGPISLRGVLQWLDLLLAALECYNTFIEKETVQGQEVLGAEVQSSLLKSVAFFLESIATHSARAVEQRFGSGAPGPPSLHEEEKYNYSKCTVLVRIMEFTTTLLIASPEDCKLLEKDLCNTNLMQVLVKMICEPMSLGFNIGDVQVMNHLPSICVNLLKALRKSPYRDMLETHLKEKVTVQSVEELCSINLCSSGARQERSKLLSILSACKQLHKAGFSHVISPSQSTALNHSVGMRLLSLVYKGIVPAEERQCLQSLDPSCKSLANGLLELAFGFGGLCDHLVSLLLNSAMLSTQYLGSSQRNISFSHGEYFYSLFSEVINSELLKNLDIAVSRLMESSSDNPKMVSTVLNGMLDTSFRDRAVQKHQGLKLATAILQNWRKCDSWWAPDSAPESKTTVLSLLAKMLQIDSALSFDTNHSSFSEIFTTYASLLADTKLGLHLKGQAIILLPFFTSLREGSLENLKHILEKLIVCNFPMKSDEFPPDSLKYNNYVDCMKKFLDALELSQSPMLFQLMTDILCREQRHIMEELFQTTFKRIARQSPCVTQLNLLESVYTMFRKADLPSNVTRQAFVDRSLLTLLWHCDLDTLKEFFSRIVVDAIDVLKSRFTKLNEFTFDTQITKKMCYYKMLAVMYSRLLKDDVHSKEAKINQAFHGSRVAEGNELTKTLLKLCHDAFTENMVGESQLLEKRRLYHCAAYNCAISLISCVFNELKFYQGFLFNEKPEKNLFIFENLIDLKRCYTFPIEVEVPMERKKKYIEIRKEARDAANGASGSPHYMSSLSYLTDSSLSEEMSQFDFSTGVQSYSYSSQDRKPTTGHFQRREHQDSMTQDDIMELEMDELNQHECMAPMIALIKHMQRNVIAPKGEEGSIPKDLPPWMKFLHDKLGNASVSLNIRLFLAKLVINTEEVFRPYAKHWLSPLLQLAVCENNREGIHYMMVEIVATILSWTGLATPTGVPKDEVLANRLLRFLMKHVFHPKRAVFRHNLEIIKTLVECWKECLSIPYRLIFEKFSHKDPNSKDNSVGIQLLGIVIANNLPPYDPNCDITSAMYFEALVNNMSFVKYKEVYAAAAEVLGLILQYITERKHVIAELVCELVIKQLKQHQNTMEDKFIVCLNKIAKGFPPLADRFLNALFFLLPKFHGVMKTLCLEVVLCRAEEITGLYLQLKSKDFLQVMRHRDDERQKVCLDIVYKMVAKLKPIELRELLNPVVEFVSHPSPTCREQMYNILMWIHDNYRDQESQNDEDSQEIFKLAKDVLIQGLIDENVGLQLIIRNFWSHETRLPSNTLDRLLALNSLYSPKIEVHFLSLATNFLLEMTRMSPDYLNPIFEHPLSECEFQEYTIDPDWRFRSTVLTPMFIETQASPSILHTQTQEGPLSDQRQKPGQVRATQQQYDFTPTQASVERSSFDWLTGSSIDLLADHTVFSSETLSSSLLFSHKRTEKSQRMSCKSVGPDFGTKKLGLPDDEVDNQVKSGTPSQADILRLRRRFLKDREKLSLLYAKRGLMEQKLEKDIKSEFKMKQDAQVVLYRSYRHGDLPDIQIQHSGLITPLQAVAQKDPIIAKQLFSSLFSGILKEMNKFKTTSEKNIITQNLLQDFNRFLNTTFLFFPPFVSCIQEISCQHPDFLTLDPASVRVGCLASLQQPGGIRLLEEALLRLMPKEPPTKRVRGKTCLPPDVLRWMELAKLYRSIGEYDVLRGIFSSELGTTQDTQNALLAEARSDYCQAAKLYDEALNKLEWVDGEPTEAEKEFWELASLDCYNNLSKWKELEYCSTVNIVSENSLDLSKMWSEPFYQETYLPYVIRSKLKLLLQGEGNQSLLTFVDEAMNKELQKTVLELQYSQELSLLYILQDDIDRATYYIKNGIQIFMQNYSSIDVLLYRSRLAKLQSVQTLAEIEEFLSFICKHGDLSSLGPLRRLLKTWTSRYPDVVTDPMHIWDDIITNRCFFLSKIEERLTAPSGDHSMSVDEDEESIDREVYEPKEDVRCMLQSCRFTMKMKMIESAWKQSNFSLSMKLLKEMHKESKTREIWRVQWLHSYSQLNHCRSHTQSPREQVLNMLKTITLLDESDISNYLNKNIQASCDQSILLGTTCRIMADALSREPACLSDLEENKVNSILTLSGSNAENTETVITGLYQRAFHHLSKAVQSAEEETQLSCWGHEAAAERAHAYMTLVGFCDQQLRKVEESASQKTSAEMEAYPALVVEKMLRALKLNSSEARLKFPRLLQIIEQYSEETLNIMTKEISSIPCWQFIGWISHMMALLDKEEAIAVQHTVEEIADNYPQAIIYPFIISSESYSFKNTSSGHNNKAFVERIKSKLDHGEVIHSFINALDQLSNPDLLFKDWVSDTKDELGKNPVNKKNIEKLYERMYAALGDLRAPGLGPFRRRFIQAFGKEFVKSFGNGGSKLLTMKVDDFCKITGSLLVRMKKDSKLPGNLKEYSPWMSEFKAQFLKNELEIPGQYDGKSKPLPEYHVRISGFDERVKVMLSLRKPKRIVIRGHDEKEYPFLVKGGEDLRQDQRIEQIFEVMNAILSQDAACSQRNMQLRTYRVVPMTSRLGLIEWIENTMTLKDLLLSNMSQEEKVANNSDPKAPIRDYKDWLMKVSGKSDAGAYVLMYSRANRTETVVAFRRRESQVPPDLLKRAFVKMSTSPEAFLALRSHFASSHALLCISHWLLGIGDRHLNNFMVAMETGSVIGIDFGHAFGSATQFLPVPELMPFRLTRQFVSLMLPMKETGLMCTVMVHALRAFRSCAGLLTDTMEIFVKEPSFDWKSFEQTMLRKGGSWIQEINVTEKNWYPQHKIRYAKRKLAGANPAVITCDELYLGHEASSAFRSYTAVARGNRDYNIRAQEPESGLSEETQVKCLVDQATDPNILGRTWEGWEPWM

**Q.** Which results are given for O=c1cc(N2CCOCC2)oc2c1ccc1ccccc12 [NU7026, 2-(morpholin-4-yl)-benzo[h]chomen-4-one]?
**A.** p38 MAPK activation in WT T cells (DNA-PKcs): increased; inhibition of activity of purified DNA-PK (DNA-PK): completely inhibit
